Data as given in ChEMBL document CHEMBL1201862, “PubChem BioAssay data set” (2004).
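Assay format: 96-well plates, 48-hour exposure. Abbreviation: GI50, concentration required for 50% inhibition of growth.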 Calls of active or inactive are those of the source. Cut-off read from the data, not from the text of the source: active = GI50 up to about 1.1 µM and inactive = higher.

Tests used:
Test in all cases: NCI-60 cell line screen, 48 h
BT-549 = tested on: BT-549
MCF7 = tested on: MCF7
M19-MEL = tested on: M19-MEL
DLD-1 = tested on: DLD-1
DMS-273 = tested on: DMS-273
LXFL 529 = tested on: LXFL 529
SNB-78 = tested on: SNB-78
XF498 = tested on: XF498

| SMILES | GI50 (BT-549) | GI50 (MCF7) | other results |
| --- | --- | --- | --- |
| NC(=O)C[S+]([O-])CC(N)C(=O)O (configuration not stated) | > 100 µM (inactive) |  |  |
| O=C1NC(=S)NC(=O)C1=C/C=C/c1ccc([N+](=O)[O-])cc1 | 10.6 µM (inactive) | 14 µM (inactive) |  |
| Cc1cc(NCc2ccccc2)c2ccccc2[n+]1CCCCCCCCCC[n+]1c(C)cc(NCc2ccccc2)c2ccccc21.[O-][Cl+3]([O-])([O-])[O-].[O-][Cl+3]([O-])([O-])[O-] | 0.569 µM (active) | 0.318 µM (active) |  |
| CCCCc1ccc(Nc2nc(Cl)c3ncn(C4CC(Oc5ccc(C)cc5)C(COc5ccc(C)cc5)O4)c3n2)cc1 (configuration not stated) | > 100 µM (inactive) | > 100 µM (inactive) |  |
| COC(=O)c1c(-c2cc(OC)c(OC)c(OC)c2)oc2ccccc2c1=O |  |  | GI50 (M19-MEL): > 100 µM (inactive); GI50 (DLD-1): 52 µM (inactive); GI50 (DMS-273): 84.9 µM (inactive); GI50 (LXFL 529): 63.4 µM (inactive); GI50 (SNB-78): > 100 µM (inactive) |
| c1ccc(C2CC(N3CCOCC3)=Nc3ccccc3N2)cc1 (configuration not stated) | > 100 µM (inactive) |  |  |
| COc1cc2c(c(OC)c1OC)-c1ccc(SC)c(=O)cc1C(NC=O)CC2 (configuration not stated) | 0.239 µM (active) | < 0.0107 µM (active) | GI50 (XF498): < 0.01 µM (active); GI50 (M19-MEL): < 0.01 µM (active); GI50 (DLD-1): < 0.01 µM (active); GI50 (DMS-273): < 0.01 µM (active); GI50 (SNB-78): < 0.01 µM (active) |
| O=C(O)Cc1cccc2c1OC(c1ccccc1)C(C(=O)c1ccccc1)C2=O (configuration not stated) | > 100 µM (inactive) | 34.6 µM (inactive) |  |
| COc1ccccc1-n1c(=O)n(C)c(=O)n1C(C)(C)C | > 100 µM (inactive) | > 100 µM (inactive) |  |
| Cc1ccccc1NC(=O)C(=O)CC(=O)c1sc(Nc2ccccc2[N+](=O)[O-])nc1C | 30.7 µM (inactive) | 23.9 µM (inactive) |  |
| COCOC1/C=C/CCCC#C[C@H](C)C(=O)CC1 (some centres not stated) | 12.6 µM (inactive) | 5.55 µM (inactive) |  |
| Oc1ccc(/C=N/CC2CCCN3CCCCC23)cc1 (configuration not stated) | 21.3 µM (inactive) | 18.3 µM (inactive) |  |
| Cc1ccc(NC(=O)CCC(=O)C(C#N)c2ccc(Cl)cc2)cc1C (configuration not stated) |  |  | GI50 (XF498): > 100 µM (inactive); GI50 (M19-MEL): > 100 µM (inactive); GI50 (DLD-1): > 100 µM (inactive); GI50 (DMS-273): > 100 µM (inactive); GI50 (LXFL 529): > 100 µM (inactive); GI50 (SNB-78): > 100 µM (inactive) |
| N/C(CSCCSC/C(N)=N/O)=N\O | > 100 µM (inactive) | > 100 µM (inactive) |  |
| CCOC(=O)c1c(-c2ccc(OC)cc2)c(C#N)c(=S)n(C2OC(CO)C(O)C(O)C2O)c1C (configuration not stated) |  | > 100 µM (inactive) |  |
| CC1=C(C(=O)Nc2ccc([N+](=O)[O-])cc2)C(c2ccc3c(c2)OCO3)C(C(=O)Nc2ccc([N+](=O)[O-])cc2)=C(C)N1 |  |  | GI50 (M19-MEL): 13.3 µM (inactive); GI50 (DLD-1): 12 µM (inactive); GI50 (DMS-273): 9.77 µM (inactive); GI50 (LXFL 529): 7.96 µM (inactive); GI50 (SNB-78): 68.4 µM (inactive) |
| CCCCCC(C)(C)CCC(=O)OC1OC(COC2OC(COC3OC(CO)C(O)C(O)C3O)C(O)C(O)C2O)C(O)C(O)C1O (configuration not stated) | > 100 µM (inactive) | > 100 µM (inactive) |  |
| Cn1c(=O)c2nc(CCNC(=O)c3ccccc3)[nH]c2n(C)c1=O | > 100 µM (inactive) |  |  |

| SMILES | GI50 (BT-549) | GI50 (MCF7) | other results |
| --- | --- | --- | --- |
| N#Cc1[nH]c(=S)[nH]c1N | > 100 µM (inactive) | > 100 µM (inactive) |  |
| O=C(Cn1c2ccc(Br)cc2c2nc3ccccc3nc21)Nc1ccccc1 | > 100 µM (inactive) |  |  |
| CC(=O)O[C@H]1C(=O)[C@@]2(C)[C@H]([C@H](OC(=O)c3ccco3)[C@]3(O)C[C@H](OC(=O)[C@H](O)[C@@H](NC(=O)c4ccccc4)c4ccccc4)C(C)=C1C3(C)C)[C@]1(OC(C)=O)CO[C@@H]1C[C@@H]2O | 2.81 µM (inactive) | 0.034 µM (active) |  |
| CCCCc1ccc(Nc2nc(Cl)c3ccn(C4CC(Oc5ccc(C)cc5)C(COc5ccc(C)cc5)O4)c3n2)cc1 (configuration not stated) | 12.6 µM (inactive) | > 46.5 µM (inactive) |  |
| O=C1SC(c2ccc(Cl)cc2)(c2ccc(Cl)cc2)c2ccccc21 | > 100 µM (inactive) | 48.8 µM (inactive) |  |
| O=c1[nH]nc(Cc2ccccc2)n1C1CCCC1 |  | > 100 µM (inactive) |  |
| OC[C@H]1O[C@@H]2O[C@@](COCc3ccccc3)([C@H](OCc3ccccc3)[C@H]2O)[C@@H]1OCc1ccccc1 | 22.2 µM (inactive) | 20.6 µM (inactive) |  |
| COc1ccc(-c2c(C#N)c(S)n(NS(=O)(=O)c3ccc(C)cc3)c(=O)c2C#N)cc1 | 13.4 µM (inactive) | 29.4 µM (inactive) |  |
| CC(=O)OCCOCn1c2c(c(=O)[nH]c1=O)CCC2 | > 100 µM (inactive) | > 100 µM (inactive) |  |
| Cc1cc2nnn(C3CCCCO3)c2cc1C (configuration not stated) | > 100 µM (inactive) | > 100 µM (inactive) |  |
| CSc1nc2c(N)ncnc2n1C |  | > 100 µM (inactive) |  |
| Brc1ccc2c3c1[C@H]1O[C@H]1c1cccc(c1-3)[C@@H]1O[C@H]21 | 16.5 µM (inactive) | 17.4 µM (inactive) |  |
| O=C1NC(=O)C2C1C1C=C3c4ccccc4N(c4ccccc4)C32[C@H]2C(=O)NC(=O)[C@@H]12 (some centres not stated) |  |  | GI50 (M19-MEL): > 100 µM (inactive); GI50 (DLD-1): > 100 µM (inactive); GI50 (DMS-273): > 100 µM (inactive); GI50 (LXFL 529): > 100 µM (inactive); GI50 (SNB-78): > 100 µM (inactive) |
| COc1ccc(O)c(C#N)c1C#N |  |  | GI50 (XF498): > 100 µM (inactive); GI50 (M19-MEL): > 100 µM (inactive); GI50 (DMS-273): > 100 µM (inactive); GI50 (LXFL 529): > 100 µM (inactive); GI50 (SNB-78): > 100 µM (inactive) |
| CN(C)CCNC(=O)Cc1ccccc1Nc1c(Cl)cccc1Cl |  |  | GI50 (M19-MEL): 14.8 µM (inactive); GI50 (DLD-1): 14.2 µM (inactive); GI50 (DMS-273): 16.7 µM (inactive); GI50 (LXFL 529): 17.7 µM (inactive); GI50 (SNB-78): 17.7 µM (inactive) |
| COc1ccc2c3c1OC1C4(CCC5C(C2)N(CC2CC2)CCC351)OCCO4 (configuration not stated) | > 100 µM (inactive) | > 100 µM (inactive) |  |
| OC1(c2cccs2)c2cccc(Cl)c2C(O)(c2cccs2)c2c(Cl)cccc21 (configuration not stated) | 35.6 µM (inactive) | > 100 µM (inactive) |  |
